{"source": "patent US20220175787A1", "about": "“PATIENT SELECTION FOR ENHANCEMENT OF ANTI-TUMOR IMMUNITY IN CANCER PATIENTS” (G1 Therapeutics Inc., priority 2019, published 2022)", "key": {"[1]": {"system": "PD-L1 positive or negative TNBC tumors", "test": "G1T28-04 overall survival by PD-L1 tumor status (Ventana SP142)", "type": "in vivo, human", "conditions": "p=0.005", "description": "Patient tumors from the G1T28-04 clinical trial described in Example 1 were characterized based on PD-L1 expression scored as negative or positive if <1% or ≥1% of the total tumor area contained PD-L1-labelled immune cells, respectively, using the Ventana SP142 assay. Association of PD-L1 expression with antitumor efficacy was assessed using proportional hazards regression. The groups are divided as follows: Group 1 (gemcitabine+carboplatin only on days 1 and 8 in a 21-day cycles), Group 2 (gemcitabine+carboplatin+trilaciclib on days 1 and 8 in a 21 day cycle), and Group 3 (gemcitabine+carboplatin on days 2 and 9+trilaciclib on days 1, 2, 8, and 9 in a 21-day cycle)."}, "[2]": {"system": "TNBC tumors categorized as CDK4/6 independent, dependent or indeterminate", "test": "G1T28-04 subgroup analysis by CDK4/6 dependency signature (PAM50, Lehmann)", "quoted_text": "Using two established signatures (Prosigna Breast Cancer Prognostic Gene Signature Assay [PAM50] and Lehmann triple-negative breast cancer type 1-4), patient tumors were characterized as CDK4/6 independent, dependent, or indeterminate. […] Because their reliance on the CDK4/6 pathway for proliferation is either unknown or heterogeneous, the remaining PAM50 signature groups (including HER2, normal-like, luminal A, and luminal B) are categorized as CDK4/6 indeterminate.\nTo address the theoretical risk that trilaciclib could decrease antitumor activity in patients with CDK4/6 dependent tumors by arresting CDK4/6-dependent tumor cells during chemotherapy, an additional prespecified subgroup analysis of the antitumor activity endpoints (objective response, progression-free survival, and overall survival) using two established signatures (PAM50 and Lehmann triple-negative breast cancer type 1-4) was performed to characterize patient tumors as CDK4/6 independent, dependent, or indeterminate."}, "[3]": {"system": "TNBC classified C2 IFN-γ Dominant or not", "test": "G1T28-04 survival by Thorsson Six Class Immune Signature", "type": "in vivo, human", "conditions": "TNBC classified as C2 IFN-γ Dominant; Groups 2+3 (Group 4) vs Group 1; p=0.036", "excerpt": "Tumor samples from patients participating in the clinical trial (Clinical trials.gov identifier NCT02978716) described in Example 1 where assayed by Q^2 Solutions (Morrisville, N.C.) to determine their Six Class Immune Classification as described in Thorsson V, et al. “The Immune Landscape of Cancer.” Immunity, […], 2018, pp. 812-830. doi: 10.1016/j.immuni.2018.03.023 (incorporated herein by reference in its entirety).\nBriefly, a six-step procedure was implemented to apply the Thorsson et al. classification to 89 pre-treatment triple negative breast cancer samples secured in the clinical trial described in Example 1. Following RNAseq data procurement, the data was cleaned and homogenized by reconciling gene and sample names across data sources. […] In short, samples in the resulting TCGA expression data were randomly down-sampled to more closely reflect the abundance of PAM50 classes within the clinical trial data (previously derived, see Example 1, Table 7). […]\nSurvival and response rates between treatment groups within pre-defined immune response groups were determined using a series of pair-wise, two-group tests based on the data derived in the G1T28-04 clinical trial described in Example 1. Additionally, examination of differences in survival and response rates between different immune response categories within a single treatment group were analyzed. […]"}, "[4]": {"system": "CD8+ T cells", "type": "cell-based, human", "conditions": "mTNBC patients"}, "[5]": {"system": "TNBC with high or low Ayers immune signature score", "test": "G1T28-04 survival by Ayers IFN-γ Signature / Expanded Immune Signature score", "type": "in vivo, human", "conditions": "Groups 2+3 (Group 4) vs Group 1", "description": "Tumor samples from patients participating in the clinical trial described in Example 1 where assayed by Q^2 Solutions (Morrisville, N.C.) to determine their Ayers Immune Scores according to Ayers et al., IFN-γ-related mRNA Profile Predicts Clinical Response to PD-1 Blockade, J Clin Invest. 2017127(8)2930-2940. The data was processed using RNA Access, and FPKM normalization prior to log 10 transformation and averaging was performed.\n89 samples were analyzed. The calculated signature score for both the IFN-γ Signature and Expanded Immune Signature were unimodel in distribution, and the median score was used to define the “High” and “Low” categories.\nSurvival and response rates between treatment groups within pre-defined immune response groups were determined using a series of pair-wise, two-group tests based on the data derived in the G1T28-04 clinical trial described in Example 1. Additionally, examination of differences in survival and response rates between different immune response categories within a single treatment group were analyzed.\nKaplan-Meier curves were generated to visualize the overall survival and progression free survival among groups (see FIGS. 8C-8F and 9A-9D). […]"}, "[6]": {"system": "extensive stage small cell lung cancer", "test": "Phase 2 NCT03041311: overall survival by newly expanded clone fraction", "type": "in vivo, human", "conditions": "SCLC patients on E/P/A above the newly expanded clone fraction median; p=0.04", "description": "(§1) A phase 2 study of carboplatin, etoposide, and atezolizumab with or without trilaciclib in patients with untreated extensive stage small cell lung cancer was initiated (Clinicaltrials.gov identifier NCT03041311). […] a 21-day induction phase and a 21-day maintenance phase. Four induction phase cycles were completed prior to the initiation of the maintenance phase cycle.\n. […] Atezolizumab (1200 mg) in 250 mL sodium chloride solution 0.9% was administered as an IV infusion on day 1 of each 21-day cycle in both the induction and maintenance phases. Atezolizumab was infused over 60 minutes for the first administration and, if tolerated, all subsequent infusions were delivered over 30 minutes. Atezolizumab was administered following the completion of administration of Compound I or placebo, etoposide, and carboplatin."}, "[7]": {"system": "T-cell clones (T-cell receptor β sequences)", "test": "Phase 2 NCT03041311 (E/P/A with or without trilaciclib): TCRB differential abundance analysis in whole blood", "type": "in vivo, human", "conditions": "for T-cell clonal expansion in responders: trilaciclib responders vs placebo responders and vs trilaciclib non-responders (FIG. 12)", "description": "as §1\nIn the induction phase, patients received trilaciclib (240 mg/m2 diluted in 250 mL D5W or sodium chloride solution 0.9%) or placebo (250 mL of D5W or sodium chloride solution 0.9%) administered IV once daily on days 1 to 3 of a 21-day cycle of each etoposide/carboplatin/atezolizumab (E/P/A) therapy cycle (up to 4 cycles in total). […] Atezolizumab (1200 mg) in 250 mL sodium chloride solution 0.9% was administered as an IV infusion on day 1 of each 21-day cycle in both the induction and maintenance phases. Atezolizumab was infused over 60 minutes for the first administration and, if tolerated, all subsequent infusions were delivered over 30 minutes. Atezolizumab was administered following the completion of administration of Compound I or placebo, etoposide, and carboplatin.\nAnalysis of the TCRB locus in blood samples was performed to identify biomarkers of immune response and immunomodulatory activity between the trilaciclib arm and the placebo arm. All samples were sequenced using a 1-rxn TCRB Assay. The number of expanded T-cell clones was determined by the differential abundance analysis of T-cell receptor β sequences in whole blood from patients at after induction and prior to starting maintenance versus baseline."}}, "data": [{"smiles": "CN1CCN(c2ccc(Nc3ncc4cc5n(c4n3)C3(CCCCC3)CNC5=O)nc2)CC1", "note": "[trilaciclib, 2′-((5-(4-methylpiperazin-1-yl)pyridin-2-yl)amino)-7′, 8′-dihydro-6′H-spiro(cyclohexane-1,9′-pyrazino(1′,2′:1,5)pyrrolo(2,3-d)pyrimidin)-6′-one]", "values": [{"measurement": "Overall survival compared with patients who did not receive trilaciclib", "setting": "[1]", "value": "statistically significant overall survival"}, {"measurement": "Effect of including trilaciclib on chemotherapy efficacy", "setting": "[2]; TNBC with variable or CDK4/6 dependent tumor (PAM50 Other or Lehmann LAR)", "value": "did not antagonize chemotherapy efficacy"}, {"measurement": "Effect of including trilaciclib on chemotherapy efficacy", "setting": "[2]; TNBC with variable or CDK4/6 independent tumor (PAM50 Basal-Like or Lehmann Other)", "value": "did not antagonize chemotherapy efficacy"}, {"measurement": "Overall survival compared with Group 1 (not receiving trilaciclib)", "setting": "[3]", "value": "significantly improved overall survival"}, {"measurement": "Lymphocyte counts and T-cell activation", "setting": "[4]; addition of trilaciclib to gemcitabine and carboplatin", "value": "did not preserve lymphocyte counts or enhance T-cell activation"}, {"measurement": "Frequency of CD8+ T cells producing IFN-γ after ex-vivo stimulation", "setting": "[4]; GC plus trilaciclib vs group 1 (FIG. 5)", "value": "higher frequency"}, {"measurement": "Overall survival compared with Group 1 (not receiving trilaciclib)", "setting": "[5]; TNBC with high Ayers Expanded Immune Signature score", "value": "significantly improved overall survival"}, {"measurement": "Overall survival compared with Group 1 (not receiving trilaciclib)", "setting": "[5]; TNBC with high Ayers IFN-γ Signature score, p=0.0194", "value": "significantly improved overall survival"}, {"measurement": "OS HR (trilaciclib versus placebo)", "setting": "[6]", "value": 0.34}, {"measurement": "Number of expanded T-cell clones", "setting": "[7]; SCLC patients on E/P/A, trilaciclib vs E/P/A only, after induction vs baseline, P=0.01, FIG. 11", "value": "significantly higher"}, {"measurement": "Number of newly expanded T-cell clones in responders", "setting": "[7]; SCLC, E/P/A, responders receiving trilaciclib vs without, p=0.001, FIG. 13", "value": "more newly expanded clones"}, {"measurement": "Fraction of newly expanded clones versus all expanded clones in responders", "setting": "[7]; SCLC, E/P/A, responders receiving trilaciclib vs without, p=0.001, FIG. 14", "value": "significantly increased"}, {"measurement": "T-cell clonal expansion in responders", "setting": "[7]; SCLC, E/P/A", "value": "more T-cell clonal expansion"}, {"measurement": "T-cell clonal expansion in responders", "setting": "[7]; SCLC, E/P/A, listed as Trilaciclib", "value": "more clonal expansion"}]}]}
